Test [1] deals with T1, human M1 (Homo sapiens, UniProt P11229).
T1 construct: expressed in transfected cells; host or cells: CHO cells
T1 sequence (P11229 1-460): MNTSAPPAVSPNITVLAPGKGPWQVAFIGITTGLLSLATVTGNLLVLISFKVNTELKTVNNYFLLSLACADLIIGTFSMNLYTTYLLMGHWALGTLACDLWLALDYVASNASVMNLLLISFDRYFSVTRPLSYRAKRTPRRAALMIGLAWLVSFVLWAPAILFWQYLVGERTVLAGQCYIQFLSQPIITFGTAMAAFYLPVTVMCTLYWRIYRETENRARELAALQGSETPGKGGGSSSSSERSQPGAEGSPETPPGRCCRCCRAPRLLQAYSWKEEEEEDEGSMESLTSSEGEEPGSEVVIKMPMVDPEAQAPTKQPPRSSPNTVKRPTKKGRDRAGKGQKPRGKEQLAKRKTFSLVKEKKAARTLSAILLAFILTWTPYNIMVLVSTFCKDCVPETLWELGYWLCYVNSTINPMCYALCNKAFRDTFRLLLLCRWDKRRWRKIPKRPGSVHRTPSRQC
Description: M1 PAM assay (FLIPR intracellular calcium, CHO human M1). The class given is cell-based. The method, then: The assay study the effect of several concentrations of test compounds on basal or acetylcholine-stimulated Ca^2+ levels using FLIPR. CHO human M1 are plated the day before the experiments at 2×10^5 cells/ml in PDL BioCoat 96 well black/clear plate (Becton 35 4640). The cells are grown at 37° C. and 5% CO2 in the following medium: F12 Nut Mix (Gibco 21765), 10% FCS heat inactivated (GIBCO 16000-044), 1% Pen Strep (Gibco, 15140) and 200 μg/ml Geneticin (Gibco 11811). On the day of the experiment, the medium was removed and replaced by 100 μl of dye loading buffer containing Hanks Balanced Salt solution (HBSS, 14065-049, Gibco) with 20 mM HEPES (Gibco 15630-056), 2 mM Probenicid (Sigma P8761), […] (Molecular Probes F-14202), 10% Pluronic acid Molecular Probes P-3000) pH=7.4 and incubated at 37° C. After 60 minutes extracellular dye was removed and the cells were washed five times with FLIPR buffer containing HBSS (Gibco 14065-049) with 20 mM HEPES (Gibco, 15630-056), 2 mM Probenicid (Sigma P8761) pre-warmed at 37° C. using and Ebml cell washer leaving 100 μl of FLIPR buffer in each well. The cell plate and the diluted compounds (1% DMSO final concentration) are placed on the platform of the FLIPR and the door closed. A signal test to check background fluorescence and basal fluorescence signal is performed. Laser intensity is adjusted if necessary. Two minutes preincubation with the diluted test compounds is provide to determine any agonist activity on the M1 receptor by comparison to 30 nM Acetylcholine control. In order to determine any modulator activity the diluted compounds were added to cells and after two minutes preincubation, the EC20 of acetylcholine is added followed by another two minutes preincubation before the measurement of intracellular Ca^2+ with a FLIPR (Molecular Devices).
For orientation: Calcium flux is commonly read through the fluorescence of an indicator in the cells.

The target in test [2] is T2, M1 receptor (Rattus norvegicus, UniProt P08482).
T2 construct: expressed in transfected cells
T2 sequence (P08482 1-460): T1 sequence (P11229 1-460) with A5V, T254S, P309S, R320K, A337G, I413V
Kind of test: M1 PAM assay (FLIPR intracellular calcium), rat. The class given is cell-based.

The mark [3] stands for this setting: human M1 in CHO cells, modulator activity with EC20 of acetylcholine, FLIPR Ca2+, read-out: EC50 h PAM.
[4] abbreviates: rat, modulator activity with EC20 of acetylcholine, FLIPR Ca2+, read-out: EC50 rat PAM.

Where a chain is given by its changes, count along the chain named. Where two headings read alike, the source gives them in different places.

Consider `Cn1cc(-c2ccc(Cn3cc(C(=O)N[C@H]4CCCC[C@@H]4O)c4ncccc43)c(F)c2)cn1` [Example 2, 1-(2-fluoro-4-(1-methyl-1H-pyrazol-4-yl)benzyl)-N-((1S,2S)-2-hydroxycyclohexyl)-1H-pyrrolo[3,2-b]pyridine-3-carboxamide], for which the EC50 – broadly, the concentration giving half of the maximal effect – in test [1] (setting [3]) was found to be 9.86 nM; in test [2] (setting [4]), 34.7 nM. For the compound `Cn1cc(-c2ccc(Cn3cc(C(=O)NCC4(O)CC4)c4ncccc43)c(F)c2)cn1` [Example 65, 1-(2-fluoro-4-(1-methyl-1H-pyrazol-4-yl)benzyl)-N-((1-hydroxycyclopropyl)methyl)-1H-pyrrolo[3,2-b]pyridine-3-carboxamide], the EC50 is 315 nM in test [1] (setting [3]) and 1390 nM in test [2] (setting [4]). As to `Cn1cc(-c2ccc(Cn3cc(C(=O)N[C@H]4CCCC[C@H]4O)c4ncccc43)c(F)c2)cn1` (racemic) [Example 37], the results for the EC50 in test [1] and in test [2] were 162 nM and 123 nM, respectively. The matching figures for `Cn1cc(-c2ccc(Cn3cc(C(=O)N[C@H]4CCOC[C@@H]4O)c4ncccc43)c(F)c2)cn1` (racemic) [Example 4, 1-(2-fluoro-4-(1-methyl-1H-pyrazol-4-yl)benzyl)-N-((3RS,4SR)-3-hydroxytetrahydro-2H-pyran-4-yl)-1H-pyrrolo[3,2-b]pyridine-3-carboxamide]: 28.6 nM and 58.7 nM. For `CC[C@@H](CO)NC(=O)c1cn(Cc2ccc(-c3cnn(C)c3)cc2F)c2cccnc12` [Example 12, 1-[2-Fluoro-4-(1-methyl-1H-pyrazol-4-yl)-benzyl]-1H-pyrrolo[3,2-b]pyridine-3-carboxylic acid ((S)-1-hydroxymethyl-propyl)-amide] the same measures were 129 nM and 244 nM.

For `Cn1cc(-c2cccc(Cn3cc(C(=O)N[C@H]4CCCC[C@@H]4O)c4ncccc43)c2)cn1` [Example 51, N-((1S,2S)-2-hydroxycyclohexyl)-1-(3-(1-methyl-1H-pyrazol-4-yl)benzyl)-1H-pyrrolo[3,2-b]pyridine-3-carboxamide], the concentration for a half-maximal effect (EC50) in test [1] was 443 nM.

Regarding `N#Cc1ccc(Cn2cc(C(=O)N[C@H]3CCCC[C@@H]3O)c3ncccc32)c(F)c1` [Example 53, 1-(4-cyano-2-fluorobenzyl)-N-((1S,2S)-2-hydroxycyclohexyl)-1H-pyrrolo[3,2-b]pyridine-3-carboxamide], in test [1], the half-maximal effective concentration (EC50) was 321 nM.

For `C[C@@H](O)CNC(=O)c1cn(Cc2ccc(-c3cnn(C)c3)cc2F)c2cccnc12` [Example 9], the EC50 in test [1] (setting [3]) is 459 nM. In the case of `C[C@H](O)CNC(=O)c1cn(Cc2ccc(-c3cnn(C)c3)cc2F)c2cccnc12` [Example 10], in test [1] (setting [3]), the half-maximal effective concentration (EC50) turned out to be 477 nM.

Consider `Cn1cc(-c2ccc(Cn3cc(C(=O)NC[C@@H](O)CO)c4ncccc43)c(F)c2)cn1` [Example 15, 1-[2-Fluoro-4-(1-methyl-1H-pyrazol-4-yl)-benzyl]-1H-pyrrolo[3,2-b]pyridine-3-carboxylic acid ((R)-2,3-dihydroxy-propyl)-amide], for which the EC50 in test [1] (setting [3]) is 333 nM. On the same count and under the same terms, under `CO[C@H]1CCCC[C@@H]1NC(=O)c1cn(Cc2ccc(-c3cnn(C)c3)cc2F)c2cccnc12` [Example 38, 1-[2-Fluoro-4-(1-methyl-1H-pyrazol-4-yl)-benzyl]-1H-pyrrolo[3,2-b]pyridine-3-carboxylic acid ((1S,2S)-2-methoxy-cyclohexyl)-amide] stands 369 nM. In the case of `Cn1cc(-c2ccc(Cn3cc(C(=O)N[C@@H]4CCC[C@H]4O)c4ncccc43)c(F)c2)cn1` [Example 16, 1-[2-Fluoro-4-(1-methyl-1H-pyrazol-4-yl)-benzyl]-1H-pyrrolo[3,2-b]pyridine-3-carboxylic acid ((1R,2R)-2-hydroxy-cyclopentyl)-amide], the concentration giving a half-maximal response (EC50) in test [1] is 397 nM. For the compound `Cn1cc(-c2ccc(Cn3cc(C(=O)NCC(O)c4ccccc4)c4ncccc43)c(F)c2)cn1` (stereo not shown) [Example 31, 1-[2-Fluoro-4-(1-methyl-1H-pyrazol-4-yl)-benzyl]-1H-pyrrolo[3,2-b]pyridine-3-carboxylic acid (2-hydroxy-2-phenyl-ethyl)-amide], the 50% effective concentration (EC50) in test [1] (setting [3]) came out at 429 nM. In the case of `CCC[C@@H](CO)NC(=O)c1cn(Cc2ccc(-c3cnn(C)c3)cc2F)c2cccnc12` [Example 23, 1-[2-Fluoro-4-(1-methyl-1H-pyrazol-4-yl)-benzyl]-1H-pyrrolo[3,2-b]pyridine-3-carboxylic acid ((S)-1-hydroxymethyl-butyl)-amide], the half-maximal effective concentration (EC50) in test [1] is 205 nM. As for `Cn1cc(-c2ccc(Cn3cc(C(=O)Nc4ccccc4CO)c4ncccc43)c(F)c2)cn1` [Example 29, 1-[2-Fluoro-4-(1-methyl-1H-pyrazol-4-yl)-benzyl]-1H-pyrrolo[3,2-b]pyridine-3-carboxylic acid (2-hydroxymethyl-phenyl)-amide], the concentration for a half-maximal effect (EC50) in test [1] (setting [3]) came to 298 nM. With `O=C(N[C@H]1CCCC[C@@H]1O)c1cn(Cc2ccc(Br)cc2)c2cccnc12` [Example 50, 1-(4-bromobenzyl)-N-((1S,2S)-2-hydroxycyclohexyl)-1H-pyrrolo[3,2-b]pyridine-3-carboxamide], the EC50 in test [1] (setting [3]) amounted to 319 nM.

In the case of `CC(C)[C@H](CO)NC(=O)c1cn(Cc2ccc(-c3cnn(C)c3)cc2F)c2cccnc12` [Example 21, 1-[2-Fluoro-4-(1-methyl-1H-pyrazol-4-yl)-benzyl]-1H-pyrrolo[3,2-b]pyridine-3-carboxylic acid ((R)-1-hydroxymethyl-2-methyl-propyl)-amide], the half-maximal effective concentration (EC50) in test [1] was 201 nM. Same read-out and setting: the figure for `O=C(N[C@H]1CCCC[C@@H]1O)c1cn(Cc2ccc(Cl)cc2)c2cccnc12` [Example 54, 1-(4-chlorobenzyl)-N-((1S,2S)-2-hydroxycyclohexyl)-1H-pyrrolo[3,2-b]pyridine-3-carboxamide] is 264 nM. On to `Cc1cccnc1NC(=O)c1cn(Cc2ccc(-c3cnn(C)c3)cc2F)c2cccnc12` [Example 35, 1-[2-Fluoro-4-(1-methyl-1H-pyrazol-4-yl)-benzyl]-1H-pyrrolo[3,2-b]pyridine-3-carboxylic acid (3-methyl-pyridin-2-yl)-amide], for which, in test [1] (setting [3]), the EC50 turned out to be 320 nM.

As for `Cc1ccc(NC(=O)c2cn(Cc3ccc(-c4cnn(C)c4)cc3F)c3cccnc23)c(CO)c1` [Example 33, 1-[2-Fluoro-4-(1-methyl-1H-pyrazol-4-yl)-benzyl]-1H-pyrrolo[3,2-b]pyridine-3-carboxylic acid (2-hydroxymethyl-4-methyl-phenyl)-amide], the EC50 in test [1] (setting [3]) was determined as 282 nM. The same measure, in the same setting: the figure for `COCC(O)CNC(=O)c1cn(Cc2ccc(-c3cnn(C)c3)cc2F)c2cccnc12` (racemic) [Example 7, rac-1-[2-Fluoro-4-(1-methyl-1H-pyrazol-4-yl)-benzyl]-1H-pyrrolo[3,2-b]pyridine-3-carboxylic acid (2-hydroxy-3-methoxy-propyl)-amide] is 232 nM. In the case of `CC(C)C[C@@H](CO)NC(=O)c1cn(Cc2ccc(-c3cnn(C)c3)cc2F)c2cccnc12` [Example 25, 1-[2-Fluoro-4-(1-methyl-1H-pyrazol-4-yl)-benzyl]-1H-pyrrolo[3,2-b]pyridine-3-carboxylic acid ((S)-1-hydroxymethyl-3-methyl-butyl)-amide], in test [1] (setting [3]), the EC50 came to 233 nM. Consider `Cn1cc(-c2ccc(Cn3cc(C(=O)N[C@@H]4COCC[C@H]4O)c4ncccc43)c(F)c2)cn1` [Example 42, 1-(2-fluoro-4-(1-methyl-1H-pyrazol-4-yl)benzyl)-N-((3R,4R)-4-hydroxytetrahydro-2H-pyran-3-yl)-1H-pyrrolo[3,2-b]pyridine-3-carboxamide], for which the EC50 in test [1] worked out at 487 nM.

The values are drawn from US9932335B2 (priority 2013, dated 2018).
